# Tests used:
# Assay type in all cases: cell-based, human
# p-ERK = assay: Immunoblot of ERK phosphorylation, U373MG cells; conditions: PD treatment, 24 hours
# Description: (§1) FIGS. 10A to 10D show the results that PD-mediated autophagy inhibition is independent of mTOR and MAPK signaling pathways. FIGS. 10A to 10C show the results in which cells were treated with PD (0 μM, 0.5 μM, 1 μM, 5 μM, and 10 μM) for 24 hours. The immunoblot analyses for p-ULK1 (Ser757), ULK1, p-S6K (Thr389), p-AKT (Ser473), ERK2, P-ERK, p-JNK1, Beclin, and ATG7 were performed using lysates from GBMs. […] Total protein extracts were analyzed by immunoblot analyses for p-ERK, LC3B, and SQSTM1. GAPDH was used as an internal control.
# Cells treated with the concentrations and materials described in FIGS. 1-3B, 7, 8, 10, 13, 16, 18, and 20 were lysed in buffer containing 20 mM Tris-HCl (pH 7.5), 150 mM NaCl, 1 mM EDTA, 1 mM Na2EDTA, 1 mM EGTA, 1% NP-40, 1% sodium deoxycholate, 1 mM Na3VO4, 1 mM MPI, 1 mM PMSF, and PI cocktails for 15 to 20 minutes on ice. Cell lysates were separated by SDS-PAGE and transferred to nitrocellulose membranes. […] The protein bands were detected with ECL western Blotting Substrate (Thermo Fisher Scientific, Waltham, Mass., USA).
# Previous studies have shown that PD enhances autophagy via mTOR/MAPK pathway. […] It is known that mTORC1 activation, measured by S6K phosphorylation, inhibits autophagy initiation by phosphorylating the ULK1 (Ser 757). […]
# U87MG cells = assay: GFP-LC3B puncta assay (confocal microscopy), U87MG cells; conditions: 10 μM PD, 24 hours
# Description: The cells transiently expressing GFP-LC3 (green) were treated with DMSO or PD (10 μM) for 24 hours and analyzed by confocal microscopy. Nuclei were stained with DAPI (blue). Quantification shown on the right graph represents mean GFP-LC3B puncta per cells from three independent experiments±SD.
# (§2) Cultured cells seeded in plates with microscope coverslips were transfected with a pGFP-LC3B plasmid using Lipofectamine 3000 (Thermo Fisher Scientific) according to the manufacturer's instructions. After the transfection, the cells were fixed with 4% paraformaldehyde (PFA) in phosphate-buffered saline (PBS) at room temperature for 10 minutes. The images were examined under a laser confocal microscope (Zeiss, Oberkochen, Baden-Wurttemberg, Germany).
# To confirm the western blot data, the LC3B accumulation in GBM cells was monitored using a confocal microscope. Both U87MG and U373MG cells transfected with a green fluorescent protein (GFP)-tagged LC3 expression plasmid were treated with 10 μM PD for 24 hours and examined under a confocal microscope.
# U87MG and U373MG cells = assay: LysoTracker assay with GFP-LC3B (autophagosome-lysosome fusion) in GBM cells; conditions: PD 10 μM, 24 hours
# Description: […] Then, cells were stained with LysoTracker (red) and DAPI (blue). The merged images show an overlap between GFP-LC3 and LysoTracker (yellow). The panels on the right are higher-magnification images of the boxed regions.
# as §2
# To stain acidic compartments, 50 nM LysoTrackerRedDND-99 (Thermo Fisher Scientific) was added to a medium at 37° C. with 5% CO2 for 30 minutes prior to fixation. The nuclei were labeled with 4,6-diamidino-2-phenylindole (DAPI, Sigma). The slides were finally mounted using a Faramount mounting medium (Dako, Glostrup, Denmark). The images were examined under a Zeiss laser confocal microscope.
# Experimental Result 11. PD Blocks Fusion of Autophagosomes with Lysosomes. Since p62 was accumulated in autophagosomes by PD treatment, it was speculated that PD may cause the lysosomal dysfunction like bafilomycin A1, which inhibits vacuolar H^+-ATPase (V-ATPase)-dependent lysosomal acidification and blocks autophagosome-lysosome fusion. Thus, the PD-treated cells with LysoTracker Red, which is a marker for acidic compartment including lysosomes was stained to examine the colocalization of GFP-LC3B.
# cell-surface LDLR = assay: Cell surface LDLR analysis by flow cytometry, normal astrocytes; conditions: PD 10 μM or U18666a 1 μM, 24 hours
# Description: (§3) FIGS. 16A to 16D show the results that PD increases the expression of LDLR on cell surfaces in GBM cells. […] GAPDH was used as a loading control. […] GAPDH was used as a loading control.
# Cells treated as described in FIG. 16 were separated from plates and resuspended in PBS. After washing with 1% BSA in PBS, the cells were incubated with a primary antibody against human LDLR (Abcam) for 30 minutes. Then, the cells were washed before incubation with an Alexa-Fluor 488-conjugated secondary antibody (Invitrogen) for 30 minutes. The stained cells were washed and resuspended. Fluorescence was analyzed by a FACScalibur flow cytometer (Becton Dickinson, San Jose, Calif., USA) using CellQuest™ software.
# (§4) Brain is the most cholesterol-rich organ of the body, containing about 20% of total body cholesterol. […] As can be confirmed in FIG. 16A, in consistent with these reports, the LDLR protein level was markedly elevated in U87MG and U373MG cells relative to normal human astrocytes. […] Then, the cell surface expression of LDLR was confirmed by flow cytometry.
# LDLR = assay: Immunoblot of LDLR in U87MG, U373MG cells and normal astrocytes; conditions: 24 hours
# Description: as §3
# (§5) Cells treated with the concentrations and materials described in FIGS. 1-3B, 7, 8, 10, 13, 16, 18, and 20 were lysed in buffer containing 20 mM Tris-HCl (pH 7.5), 150 mM NaCl, 1 mM EDTA, 1 mM Na2EDTA, 1 mM EGTA, 1% NP-40, 1% sodium deoxycholate, 1 mM Na3VO4, 1 mM MPI, 1 mM PMSF, and PI cocktails for 15 to 20 minutes on ice. Cell lysates were separated by SDS-PAGE and transferred to nitrocellulose membranes. Immunodetection was performed with the following primary antibodies: rabbit anti-LC3B, rabbit anti-cathepsin B, rabbit-anti GAPDH (Cell Signaling Technology, Danvers, Mass.), mouse anti-SQSTM1/p62, and goat anti-cathepsin D (Santa CruzKPL, Gaithersburg, Md., USA) were incubated at room temperature for 1 hour. The protein bands were detected with ECL western Blotting Substrate (Thermo Fisher Scientific, Waltham, Mass., USA).
# as §4
# [1] = test system: p-ULK1 (Ser757), p-S6K (Thr389), p-AKT (Ser473), p-JNK1, Beclin, ATG7; assay: Immunoblot of mTOR/MAPK and autophagosome assembly proteins in GBM cells; conditions: PD 0-10 μM, 24 hours
# Description: as §1, §5
# Previous studies have shown that PD enhances autophagy via mTOR/MAPK pathway. In order to analyze the molecular mechanisms of PD-mediated autophagy in GBM cells, several regulatory components for autophagy were examined by immunoblot analysis. It is known that mTORC1 activation, measured by S6K phosphorylation, inhibits autophagy initiation by phosphorylating the ULK1 (Ser 757). […] Furthermore, as can be confirmed in FIG. 10A, altered phosphorylation of AKT, which is a positive regulator of mTORC1, was not observed in these cells. […] In order to assess a role of the ERK phosphorylation in autophagy regulation in PD-treated U373MG cells, PD98059, which is a inhibitor of MEK (i.e., an upstream activator of ERK), was added before PD treatment and the changes in LC3-II and p62 levels were examined by western blotting.
smiles,measurement,setting,value
"C[C@@H]1O[C@@H](O[C@H]2[C@H](OC(=O)[C@]34CCC(C)(C)C[C@H]3C3=CC[C@@H]5[C@@]6(C)C[C@H](O)[C@H](O[C@@H]7O[C@H](CO)[C@@H](O)[C@H](O)[C@H]7O)C(CO)(CO)[C@@H]6CC[C@@]5(C)[C@]3(C)C[C@H]4O)OC[C@H](O)[C@@H]2O)[C@H](O)[C@H](O)[C@H]1O[C@@H]1OC[C@@H](O)[C@H](O[C@@H]2OC[C@](O)(CO)[C@H]2O)[C@H]1O [PD, platycodin D]",phosphorylation levels of ERK,p-ERK,markedly increased
same,fold increase of GFP-LC3 puncta per cell vs DMSO,U87MG cells,10.1 fold
same,GFP-LC3 puncta per cell,U87MG cells; mean±SD,38.03±5.75
same,lysosomal acidification (LysoTracker Red fluorescence),U87MG and U373MG cells,does not affect lysosomal acidification
same,colocalization of GFP-LC3B and LysoTracker Red staining,"U87MG and U373MG cells; BafA1 100 nM, Rapa 1 μM",significant separation
same,changes in peak shift (cell surface LDLR),cell-surface LDLR,very negligible
same,LDLR expression,"LDLR; PD 5 μM and 10 μM or U18666a 1 μM, U87MG, U373MG and normal astrocytes",significantly increased
same,"degree of LDLR expression, GBM cells vs normal astrocytes",LDLR; PD 5 μM and 10 μM,more prominent in GBM cells than in normal astrocytes
same,altered phosphorylation of AKT,[1],not observed
same,phosphorylation levels of JNK vs control cells,[1],no significant difference
same,phosphorylation of S6K and ULK1,[1],no alteration
same,Beclin-1 and ATG7 protein levels,[1]; both cells,no significant changes

# — patent publication US11351218B2, “Composition for preventing or treating glioblastoma comprising Platycodon grandiflorum A. De Candolle, Scutellaria baicalensis, Phellodendron amurense Ruprecht or Rubus coreanus” (University-Industry Cooperation Group of Kyung Hee …, priority 2019, dated 2022)
